Laboratory results taken from patent US6573300B2, “Hydroxyurea treatment for spinal muscular atrophy” (China Medical College Hospital, priority 2001, dated 2003).

Key:
[1] = test system: exon 7-containing SMN protein; test: Western-blot analysis (H2 and H7 antibodies) of SMN protein in SMA lymphoid cell lines; assay type: cell-based, human
Excerpt: Western-blot analysis. Rabbits were immunized with synthetic peptides containing either human SMN amino acids 279-288 from exon 7 or amino acids 72-84 from exon 2. Specific antibodies (H7 and H2 respectively) were purified from rabbit crude sera with an EAH-sepharose 4B column (Pharmacia) according to the manufacturer's instructions.
Protein samples, prepared from treated and untreated SMA lymphoid cells, were loaded on a 5% polyacrylamide stacking gel above a 12% separating gel, and the gel was run with a discontinuous buffer using Laemmli's method. After electrophoresis, proteins were transferred electrophoretically to polyvinyl difluoride membranes (Millipore Corp., Marlborough, Mass., USA). After the transfer, the membranes were blocked in TBST (50 mM Tris.HCl, pH 7.5, 150 mM NaCl, 0.05% Tween 20) containing 4% BSA (bovine serum albumin) for 2 hours at room temperature. Blots were incubated with a 1:800 dilution of anti-SMN exon 2 (H2) or anti-SMN exon 7 (H7) antibody in TBST for 2 hours at room temperature. […] The secondary antibody was detected with a 1.5% solution of 5-bromo-4-chloro-3-indoyl phosphate and 3% nitro blue tetrazolium in a developing buffer (100 mM NaCl, 5 mM MgCl2, 100 mM Tris.HCl, pH 9.5).

SMA-like mice = test: Treatment of types 2 and 3 SMA-like mice (hSMN2 Smn-/-) via drinking water; assay type: in vivo, mouse
Protocol: To generate hSMN2 Smn^−/− mice, hSMN2 Smn^+/− mice were crossed to Smn^+/− mice. Progeny lacking the murine SMN locus were identified by genotyping. The presence of the hSMN2 transgene was also confirmed.
The effect of hydroxyurea on the symptoms of SMA-like mice were investigated. Hydroxyurea was administered to ten SMA-like mice with type 2 symptoms and ten SMA-like mice with type 3 symptoms. These mice were identified at birth by genotype and phenotype. Hydroxyurea was administered to the SMA-like mice as 1 mg/ml to 2 mg/ml solution available ad libitum in their drinking water. The amount of hydroxyurea taken by SMA-like mice was estimated to be approximate 5-10 mg/day. The survival time of hydroxyurea-treated type 2 SMA-like mice was longer, about 4 to 5 days longer on average, than untreated mice.
The effect of hydroxyurea administration on the tail phenotype of SMA-like mice was also monitored. The tails of untreated types 2 and 3 SMA-like mice have decreased diameter of muscle fibers, atrophy of muscle bundles, group atrophy and subcutaneous edema (Hsieh-Li et al. (2000) supra).

human SMA patients = test: Treatment of human SMA patients, oral; assay type: in vivo
[2] = absorbed from the gastrointestinal tract; cited from earlier work

NC(=O)NO [hydroxyurea]
intact SMN protein in cytosolic and nuclear fractions ([1]; after 3 hours stimulation with 5 ng/ml to 500 μg/ml): increase | levels of exon 7-containing SMN protein ([1]; lymphoid cell lines from different types of SMA patients, varying amounts, vs untreated controls): increase | tail phenotype (SMA-like mice; most of types 2 and 3 SMA-like mice, after treatment): nearly normal phenotype | frequency of chronic necrosis originating at the tip of the tail (SMA-like mice; treated SMA-like mice, 50% for untreated): 2% | exon 7-containing SMN protein levels in multiple tissues, including spinal cord motor neurons (SMA-like mice; western blot and immunohistochemical studies, treated SMA-like mice): elevated | full-length SMN mRNA transcript in peripheral mononuclear cells (human SMA patients; SMA patients with SMN1 deletion, oral 15 to 25 mg/kg/day): elevated | walking gait (human SMA patients; one type II patient, improved to a type III phenotype): improved | clinical symptoms of all three patients (human SMA patients; oral 15 to 25 mg/kg/day): improved | muscle strength (human SMA patients; other type II patient): improved muscle strength | respirator dependence (human SMA patients; type I patient, on respirator before treatment): respirator free | time to enter the serum after ingestion [2]: ≤ 2 h
